Measured values from BindingDB's records for doi:10.1021/ml5002757 (Therachem Research Medilab (India), 2014).
pEC50: −log10 of the molar value.

Target: Free fatty acid receptor 1 (Homo sapiens, UniProt O14842)
Experiment: Modulation activity at human GPR40 expressed in HEK293 cells by IP-1 detection based HTRF assay

Sequence of Free fatty acid receptor 1 (O14842 whole entry): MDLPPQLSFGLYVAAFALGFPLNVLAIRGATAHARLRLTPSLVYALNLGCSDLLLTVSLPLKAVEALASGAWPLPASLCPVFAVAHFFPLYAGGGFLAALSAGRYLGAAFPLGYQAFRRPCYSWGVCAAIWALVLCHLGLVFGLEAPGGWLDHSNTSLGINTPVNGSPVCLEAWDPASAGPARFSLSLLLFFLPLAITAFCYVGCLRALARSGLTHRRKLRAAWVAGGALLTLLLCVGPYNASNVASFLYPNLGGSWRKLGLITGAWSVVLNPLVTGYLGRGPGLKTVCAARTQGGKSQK

pEC50: 6.25
SMILES: Cc1ccccc1Oc1ccc(N2N=C(C#N)CC2CC(=O)O)cc1 (stereo unspecified)
